Experimental data published in PMC5498548.
Where “and” joins values, the source holds several entries; their conditions need not be identical. Equal entries are not always repeated. Structures can show the parent of a compound that is named as a salt. Where two headings read alike, the source gives them in different places.

Molecular target: IdeR (Mycobacterium tuberculosis, UniProt P9WMH1)
Assay: biochemical
Settings: EMSA
[1] = 0.35 µg IdeR, 0.8 picomoles labeled DNA, 200 µM NiSO4, inhibitor 0.4-100 µg/ml
[2] = same values given in µM, read-out: IC50
[3] = 0.35 µg IdeR, 0.8 picomoles labeled DNA, 200 µM NiSO4, inhibitor 0.4-100 µg/ml, read-out: IC50 (µg/ml) (converted)

Chain of IdeR (P9WMH1 whole entry, looked up): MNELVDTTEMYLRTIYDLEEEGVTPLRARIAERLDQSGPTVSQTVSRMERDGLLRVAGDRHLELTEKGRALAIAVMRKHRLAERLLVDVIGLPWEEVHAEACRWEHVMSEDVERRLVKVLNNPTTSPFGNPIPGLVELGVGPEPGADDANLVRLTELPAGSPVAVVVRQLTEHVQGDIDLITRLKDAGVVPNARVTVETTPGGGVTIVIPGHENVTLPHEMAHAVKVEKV

**Q.** How did the “IC50” value [1] turn out when “4-oxo-3-({4-[-(4-sulfophenyl)diazenyl]phenyl}hydrazono)-3,4-dihydro-1-naphtalenesulfonic acid [IS-7]” was run?
**A.** 32.13 ± 1.56 µg/mL

**Q.** What about the IC50 [2] of the same compound?
**A.** 57.5 µM

**Q.** With “5[phenylimino)methyl]benzene-1,2,3 triol [IS-51]” as the compound, how does the “IC50” value [1] read?
**A.** 16.5 µg/mL and 16.52 ± 1.72 µg/mL

**Q.** And the IC50 [2]?
**A.** 72 µM

**Q.** For `O=C1OC(C=Cc2ccccc2)=NC1=Cc1cccc([N+](=O)[O-])c1` [Compound I-18, 4-(3-nitrobenzylidene)-2-[2-phenylethenyl]-1,3-oxazol5(4H)-one], which IC50 [3] is on record?
**A.** 43.7 µM

**Q.** What about the IC50 [2] of the same compound?
**A.** 43.7 µM

**Q.** How did the “IC50” value [1] turn out when `Cc1cc(=O)oc2c(CNC(C)C(=O)O)cc(O)cc12` (stereo not shown) [Compound I-38] was run?
**A.** 100 ± 3.176 µg/mL

**Q.** What about the IC50 [2] of the same compound?
**A.** 361 µM

**Q.** For `O=S(=O)(Nc1ccc(Cl)cc1NS(=O)(=O)c1ccccc1)c1ccccc1` [Compound I-85, N,N`-(4-chlorobenzene-1,2-diyl)dibenzenesulfonamide], which IC50 [3] is on record?
**A.** 67.2 µM

**Q.** What about the IC50 [2] of the same compound?
**A.** 67.1 µM

**Q.** With `O=C(NN=c1ccc([N+](=O)[O-])c[nH]1)Nc1ccc(-c2ccccc2)cc1` [Compound I-89, N-(biphenyl-4-yl)-2-(5-nitropyridin-2(1H)-ylidene)hydrazinecarboxamide] as the compound, how does the IC50 [3] read?
**A.** 83.3 µM

**Q.** What about the IC50 [2] of the same compound?
**A.** 83.4 µM

**Q.** For `Cc1ccccc1N=Nc1ccc2c(S(=O)(=O)[O-])cccc2c1O.[Na+]` [Compound I-90, 1-Naphthalenesulfonic acid,5-hydroxy-6-[(2-methylphenyl)azo]-monosodium salt], which “IC50” value [1] is on record?
**A.** 45.27 ± 1.3 µg/mL

**Q.** And the IC50 [2]?
**A.** 124 µM

**Q.** Which IC50 [3] does the source give for `O=C1N[C@H]2CCCC[C@@H]2C(=O)N1OS(=O)(=O)c1ccccc1` [Compound I-91, (4As,8As)-3-[(phenylsulfonyl)oxy]hexahydroquinazoline-2,4(1H,3H)-dione] here?
**A.** 231 µM

**Q.** And the IC50 [2]?
**A.** 231 µM

**Q.** Which IC50 [3] does the source give for `NC(Cc1c[nH]c2cc(OCc3ccccc3)ccc12)C(=O)O` (stereo not shown) [Compound I-92, 2-amino-3-[6-(benzyloxy)-1H-indol-3-yl]propanoic acid] here?
**A.** 189 µM

**Q.** What about the IC50 [2] of the same compound?
**A.** 189 µM

**Q.** With `Cc1c2ccccc2nc(C[S+]([O-])c2ccccc2)[n+]1[O-]` (stereo not shown) [Compound I-93, 4-methyl-2-[(phenylsulfinyl)methyl]quinazoline 3-oxide] as the compound, how does the IC50 [3] read?
**A.** 181 µM

**Q.** And the IC50 [2]?
**A.** 182 µM

**Q.** Which results are given for `Oc1ccc(/C=N\c2ccccc2/N=C\c2ccc(O)c(O)c2)cc1O` [Compound I-103, 4,4`-{benzene-1,2-diylbis[nitrilo(Z)methylylidene]}dibenzene-1,2-diol]?
**A.** IC50 [3]: 95.6 µM; IC50 [2]: 95.6 µM

**Q.** `O=C(NN1C(=O)C=C(O)C1=Cc1ccccc1)c1ccccc1` [Compound I-112, N-[2-benzylidene-3-hydroxy-5-oxo-2,5-dihydro-1H-pyrrol-1-yl]benzamide] was tested. Which IC50 [3] did it give?
**A.** 170 µM

**Q.** What about the IC50 [2] of the same compound?
**A.** 170 µM

**Q.** For `Cc1ccccc1NC(=O)Nc1cccc(-c2nnc(Cc3ccc4c(c3)OCO4)o2)c1` [IA8, 3-[3-[5-(1,3-benzodioxol-5-ylmethyl)-1,3,4-oxadiazol-2-yl]phenyl]-1-(o-tolyl) urea], which IC50 [3] is on record?
**A.** 143 µM

**Q.** How did the IC50 [3] turn out when `O=S(=O)(O)c1ccc(O)c(/N=N/c2ccc(O)cc2O)c1` [IS-2, Benzensulfonic acid, 3-[(2,4-dihydroxyphenyl)azo]-4-hydroxy] was run?
**A.** 17.4 µM and 17.7 µM

**Q.** And the IC50 [2]?
**A.** 16.3 µM

**Q.** Which results are given for `O=S(=O)(O)c1cccc2cccc(N=Nc3c(O)ccc4ccccc34)c12` [IS-6, 8-[-(2-hydroxynaphthalen-1-yl)diazenyl]naphthalene-1-sulfonic acid]?
**A.** IC50 [3]: 57.2 µM; IC50 [2]: 54 µM

**Q.** What does the source list for `Nc1ccc(N=Nc2ccc(N=Nc3ccc(N=Nc4cc(S(=O)(=O)O)c5ccccc5c4O)c4ccc(S(=O)(=O)O)cc34)c3ccc(S(=O)(=O)O)cc23)cc1` [IS-8, 1-Naphthalenesulfonic acid, 3-[[4-[[4-[(4-aminophenyl)azo]-6-sulfo-1-naphthalenyl]azo]-6-sulfo-1-naphthalenyl]azo]-4-hydroxy-,trisodium salt]?
**A.** IC50 [3]: 0.813 µM and 0.822 µM; IC50 [2]: 0.75 µM

**Q.** `O=S(=O)([O-])c1cc(N=Nc2c(O)ccc3ccccc23)c2c(S(=O)(=O)[O-])cccc2c1.[Na+].[Na+]` [IS-9, 8-[-(2-hydroxynaphthalen-1-yl)diazenyl]naphthalene-1,6-disulfonic acid, disodium salt] was tested. Which “IC50” value [1] did it give?
**A.** 13.9 ± 7.37 µg/mL

**Q.** And the IC50 [2]?
**A.** 27.6 µM

**Q.** Which IC50 [3] does the source give for `O=S(=O)(O)c1ccc(O)c(/N=N/c2ccc(O)cc2O)c1` [IS-12, Benzene sulfonic acid, 3-[(2,4-dihydroxyphenyl)azo]-4-hydroxy] here?
**A.** 15.1 µM

**Q.** What about the IC50 [2] of the same compound?
**A.** 15.2 µM

**Q.** For `Nc1ccc(-c2nc3ccccc3s2)cc1S(=O)(=O)O` [IS-32, 2-Amino-5-(1,3-benzothiazol-2-yl) benzenesulfonic acid], which IC50 [3] is on record?
**A.** 68.3 µM

**Q.** What about the IC50 [2] of the same compound?
**A.** 64.8 µM

**Q.** What does the source list for `Cc1cc(=O)oc2c(CNC(C(=O)O)C(C)O)c(O)ccc12` (stereo not shown) [IS-40, 3-hydroxy-2-{[(7-hydroxy-4-methyl-2-oxo-2H-chromen-8-yl)methyl]amino}butanoic acid]?
**A.** IC50 [3]: 269 µM; IC50 [2]: 275 µM

**Q.** `O=S(=O)(O)c1ccc2c(N=Nc3cccc4ccccc34)c(O)c(S(=O)(=O)O)cc2c1` [IS-45, 2,7-naphthalenedisulfonic acid, 3-hydroxy-4-(1-napthalenylazo)] was tested. Which “IC50” value [1] did it give?
**A.** 20.19 ± 1.74 µg/mL

**Q.** What about the IC50 [2] of the same compound?
**A.** 40 µM

**Q.** For `Oc1ccccc1C=Nc1ccccc1N=Cc1ccccc1O` [IS-47], which “IC50” value [1] is on record?
**A.** 84 ± 1.2 µg/mL

**Q.** What about the IC50 [2] of the same compound?
**A.** 266 µM

**Q.** How did the “IC50” value [1] turn out when `O=S(=O)(O)c1cccc2c(O)c(N=Nc3cccc4ccccc34)ccc12` [IS-55, 1-napthalenesulfonic acid,5-hydroxy-6-(1-naphthalenylazo)] was run?
**A.** 6.6 ± 1.95 µg/mL

**Q.** And the IC50 [2]?
**A.** 16.4 µM

**Q.** With `COc1ccccc1N=Nc1cc(S(=O)(=O)O)c2ccccc2c1O` [IS-59] as the compound, how does the “IC50” value [1] read?
**A.** 18.64 ± 1.532 µg/mL

**Q.** And the IC50 [2]?
**A.** 48.9 µM

**Q.** How did the “IC50” value [1] turn out when `O=S(=O)(Nc1c(Cl)c(Cl)c(Cl)c(Cl)c1NS(=O)(=O)c1ccccc1)c1ccccc1` [IS-70, N,N-(3,4,5,6-tetrachlorobenzene-1,2-diyl) dibenzenesulfonamide] was run?
**A.** 46.44 ± 1.486 µg/mL

**Q.** What about the IC50 [2] of the same compound?
**A.** 88.3 µM
